# Like-named read-outs stand apart in the source and are kept apart here. Marks after values point to notes of the source that are not given here. *1 amine or outer side, *2 acyl side, *3 side chain or, on linkers, in order; H or OH if unused. Bridges are numbered along the chain shown (N, C = ends). Where no end group is shown, it is not given here. [ ]: non-standard residue; d: D form. Phe(Nα-(CH2)3CO) = O=C([C@H](Cc1ccccc1)N(CCCC(=O)[*:3])[*:1])[*:2]; N(2-aminoethyl)Phe = O=C([C@H](Cc1ccccc1)N(CCN[*:3])[*:1])[*:2]
# What was measured:
# [1] = PAMPA, pH 7.4
# Description: (§1) The Parallel Artificial Membrane Permeability Assay (PAMPA) is used as an in vitro model of passive, transcellular permeation. […] This assay also allows evaluation of permeability over a large pH range, which is valuable for a preliminary understanding of how orally delivered compounds might be absorbed across the entire gastrointestinal tract. […] Depending upon the types of lipids used and other experimental conditions, PAMPA may be designed to model absorption in gastrointestinal tract (PAMPA-GIT), blood-brain barrier penetration (PAMPA-BBB) or skin penetration (Skin PAMPA). All steps of the PAMPA were carried out according to pION Inc. PAMPA Explorer™ Manual. The main principle of the assay is the incubation of compound in donor chamber (a well in Donor Plate) with aqueous buffer, which is separated from acceptor chamber (a well in Acceptor Plate) with another buffer by a phospholipid or hydrocarbon membrane fixed on a filter support. After the test, concentrations in the corresponding donor and acceptor wells are measured and permeability is calculated. GIT model was simulated using GIT-0 phospholipid mix. […] All compounds were tested in triplicates. Prisma HT buffer (pH 7.4) containing 50 μM test compounds and 0.5% DMSO were added into the Donor Plate wells. Acceptor Sink buffer was added into each well of the acceptor plate. Incubation was done at room temperature for 4 hours without stirring. […] Compounds with low UV-Vis signal were detected by LC-MS/MS method. Then the apparent permeability coefficient was calculated.
# [2] = system: Caco-2 cells; experiment: Caco-2 permeability study (Examples 1-4); conditions: for Caco-2 permeability: qualitative; for Papp AB / Papp BA: Table 3, n = 3
# Protocol: (§2) The culture growth medium consisted of DMEM supplemented with 10% heat-inactivated FBS, 1% MEM-NEAA, 2 mM 1-glutamine, 1 mM sodium pyruvate, 50,000 units Penicillin G Sodium and 50 mg Streptomycin Sulfate (Biological Industries). The medium was replaced every other day.
# (§3) Cells (passage 55-60) were seeded at density of 25×10^5 cells/cm^2 on untreated culture inserts of polycarbonate membrane with 0.4 μm pores and surface area of 1.1 cm^2. Culture inserts containing Caco-2 monolayer were placed in 12 mm transwell plates (Corning). Culture medium was replaced every other day. Transepithelial Electrical Resistance (TEER) values were measured by Millicell ERS-2 System (Millipore) a week after seeding up to experiment day (21-23 days) to ensure proliferation and differentiation of the cells. When the cells were fully differentiated and TEER values became stable (200-500 Ω·cm^2). The TEER values were compared to control inserts containing only the medium.
# (§4) The experiment was initiated by replacing the medium from both sides by apical (600 μl) and basolateral (1500 μl) buffers, both warmed to 37° C. The Cells were incubated with the buffers solutions for 30 min at 37° C. on a shaker (100 cycles/min). […] 50 μl samples were taken from the apical side immediately at the beginning of the experiment, resulting in 550 μl apical volume during the experiment.
# (§5) Permeability Coefficient (Papp) for each compound was calculated from the linear plot of drug accumulated versus time, using the following equation:
# (§6) Where dq/dt is steady state appearance rate of the compound on the receiver side, C0 is the initial concentration of the drug on the donor side, and A is the exposed tissue surface area (1.1 cm^2).
# (§7) Transport studies were performed through the Caco-2 monolayer mounted in an Ussing-type chamber set-up with continuous trans-epithelial electrical resistance (TEER) measurements to assure TEER between 800 and 1200 Ω*cm^2. HBSS supplemented with 10 mM IVIES and adjusted to pH 6.5 were used as transport medium in the donor compartment and pH 7.4 in the acceptor compartment. The donor solution contained the test compound.
# (§8) Permeability mechanism of compounds is studied by evaluating the Papp of a compound from the apical to the basolateral (A-to-B) membrane and its Papp from the basolateral to the apical membrane (B-to-A). The A-to-B assay simulates passive and transporter-mediated permeability. The B-to-A assay is essential complementary experiment indicative of the activity of P-gp. The ratio of the A-to-B and B-to A Papps (efflux ratio) is calculated to determine the permeability mechanism.
# [3] = target: T1, human αvβ6-Integrin (Homo sapiens, UniProt P06756+P18564, DEL708-788); experiment: Integrin binding assay (solid-phase), αvβ6
# T1 construct: purchased R&D
# T1 sequence (P06756 31-992 limits assumed, stated change not applied): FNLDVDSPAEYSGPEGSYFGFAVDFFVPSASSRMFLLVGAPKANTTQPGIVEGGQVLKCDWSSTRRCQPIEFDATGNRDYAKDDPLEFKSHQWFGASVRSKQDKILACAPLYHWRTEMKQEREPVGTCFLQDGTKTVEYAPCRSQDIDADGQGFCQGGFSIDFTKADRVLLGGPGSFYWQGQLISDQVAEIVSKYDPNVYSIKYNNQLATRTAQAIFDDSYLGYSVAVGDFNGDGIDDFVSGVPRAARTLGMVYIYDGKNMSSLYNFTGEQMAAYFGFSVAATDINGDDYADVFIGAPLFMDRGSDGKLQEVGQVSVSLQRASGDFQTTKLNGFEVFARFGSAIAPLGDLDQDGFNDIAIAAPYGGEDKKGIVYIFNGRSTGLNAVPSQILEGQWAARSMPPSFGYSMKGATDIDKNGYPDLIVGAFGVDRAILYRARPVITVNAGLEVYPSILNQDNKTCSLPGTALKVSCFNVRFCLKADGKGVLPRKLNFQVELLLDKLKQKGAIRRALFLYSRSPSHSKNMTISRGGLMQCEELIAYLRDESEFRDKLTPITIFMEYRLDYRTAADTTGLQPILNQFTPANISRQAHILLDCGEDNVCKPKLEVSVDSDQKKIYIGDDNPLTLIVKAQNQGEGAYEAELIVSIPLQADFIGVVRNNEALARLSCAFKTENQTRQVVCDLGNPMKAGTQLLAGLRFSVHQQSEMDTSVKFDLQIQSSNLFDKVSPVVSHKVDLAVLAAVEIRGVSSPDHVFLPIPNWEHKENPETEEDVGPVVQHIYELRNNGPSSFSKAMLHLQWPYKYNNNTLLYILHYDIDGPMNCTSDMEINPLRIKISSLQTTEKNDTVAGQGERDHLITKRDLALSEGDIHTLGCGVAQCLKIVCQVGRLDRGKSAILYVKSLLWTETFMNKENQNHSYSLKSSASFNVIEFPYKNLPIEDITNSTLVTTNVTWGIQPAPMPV
# T1 sequence (P18564 22-707 limits assumed, stated change not applied): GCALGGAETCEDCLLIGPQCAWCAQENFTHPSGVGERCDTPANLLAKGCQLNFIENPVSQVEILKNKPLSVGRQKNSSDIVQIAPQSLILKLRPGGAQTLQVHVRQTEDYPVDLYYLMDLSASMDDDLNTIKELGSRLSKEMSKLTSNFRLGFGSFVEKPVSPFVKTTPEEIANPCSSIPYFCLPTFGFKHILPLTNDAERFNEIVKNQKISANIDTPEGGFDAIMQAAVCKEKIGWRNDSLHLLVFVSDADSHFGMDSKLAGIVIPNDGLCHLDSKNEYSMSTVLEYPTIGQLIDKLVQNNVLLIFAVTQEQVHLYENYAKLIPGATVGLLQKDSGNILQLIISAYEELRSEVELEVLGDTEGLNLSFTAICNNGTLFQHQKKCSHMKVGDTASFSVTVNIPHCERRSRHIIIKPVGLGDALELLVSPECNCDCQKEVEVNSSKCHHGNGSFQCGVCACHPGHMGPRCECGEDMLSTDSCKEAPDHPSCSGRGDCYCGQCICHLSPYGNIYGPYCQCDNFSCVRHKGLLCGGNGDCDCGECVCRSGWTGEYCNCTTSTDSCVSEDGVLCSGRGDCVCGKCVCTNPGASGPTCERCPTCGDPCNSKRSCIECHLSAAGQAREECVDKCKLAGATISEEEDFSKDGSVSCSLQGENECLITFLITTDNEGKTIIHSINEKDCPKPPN
# Protocol: (1) 0.4 μg/mL; LAP (TGF-3), R&D.
# (2) 0.5 μg/mL, human αvβ6-Integrin, R&D.
# [4] = target: T2, human αvβ5-integrin (Homo sapiens, UniProt P06756+P18084); experiment: Integrin binding assay (solid-phase), αvβ5
# T2 construct: purchased Millipore
# T2 sequence (P06756 31-889 limits assumed): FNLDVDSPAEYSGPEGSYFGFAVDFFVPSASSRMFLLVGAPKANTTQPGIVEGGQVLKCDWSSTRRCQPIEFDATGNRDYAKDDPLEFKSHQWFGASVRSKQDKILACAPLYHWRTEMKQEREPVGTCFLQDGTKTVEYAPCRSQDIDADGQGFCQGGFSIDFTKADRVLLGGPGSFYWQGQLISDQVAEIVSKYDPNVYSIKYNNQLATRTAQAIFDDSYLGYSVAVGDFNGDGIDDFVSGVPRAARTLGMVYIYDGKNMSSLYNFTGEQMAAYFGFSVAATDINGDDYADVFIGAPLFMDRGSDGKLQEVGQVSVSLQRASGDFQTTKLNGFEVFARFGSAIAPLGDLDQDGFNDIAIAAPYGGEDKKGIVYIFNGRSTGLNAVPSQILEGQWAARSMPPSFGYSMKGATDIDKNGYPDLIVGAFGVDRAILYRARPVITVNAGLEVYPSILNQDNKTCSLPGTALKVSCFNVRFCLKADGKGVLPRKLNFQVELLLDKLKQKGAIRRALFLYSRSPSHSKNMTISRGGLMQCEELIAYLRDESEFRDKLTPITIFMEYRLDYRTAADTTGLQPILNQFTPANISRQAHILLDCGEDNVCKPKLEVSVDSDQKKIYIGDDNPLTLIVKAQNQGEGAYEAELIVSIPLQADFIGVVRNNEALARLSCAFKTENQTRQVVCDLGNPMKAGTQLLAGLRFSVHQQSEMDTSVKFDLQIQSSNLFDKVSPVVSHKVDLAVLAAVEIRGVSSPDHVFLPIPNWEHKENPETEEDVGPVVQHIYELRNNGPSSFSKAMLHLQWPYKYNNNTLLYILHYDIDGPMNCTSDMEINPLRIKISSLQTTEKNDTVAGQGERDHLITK
# T2 sequence (P06756 891-1048 partner limits assumed): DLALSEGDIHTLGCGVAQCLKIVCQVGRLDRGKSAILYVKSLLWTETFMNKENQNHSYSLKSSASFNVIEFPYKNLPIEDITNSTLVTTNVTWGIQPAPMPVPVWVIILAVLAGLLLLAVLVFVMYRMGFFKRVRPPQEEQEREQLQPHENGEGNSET
# T2 sequence (P18084 24-799): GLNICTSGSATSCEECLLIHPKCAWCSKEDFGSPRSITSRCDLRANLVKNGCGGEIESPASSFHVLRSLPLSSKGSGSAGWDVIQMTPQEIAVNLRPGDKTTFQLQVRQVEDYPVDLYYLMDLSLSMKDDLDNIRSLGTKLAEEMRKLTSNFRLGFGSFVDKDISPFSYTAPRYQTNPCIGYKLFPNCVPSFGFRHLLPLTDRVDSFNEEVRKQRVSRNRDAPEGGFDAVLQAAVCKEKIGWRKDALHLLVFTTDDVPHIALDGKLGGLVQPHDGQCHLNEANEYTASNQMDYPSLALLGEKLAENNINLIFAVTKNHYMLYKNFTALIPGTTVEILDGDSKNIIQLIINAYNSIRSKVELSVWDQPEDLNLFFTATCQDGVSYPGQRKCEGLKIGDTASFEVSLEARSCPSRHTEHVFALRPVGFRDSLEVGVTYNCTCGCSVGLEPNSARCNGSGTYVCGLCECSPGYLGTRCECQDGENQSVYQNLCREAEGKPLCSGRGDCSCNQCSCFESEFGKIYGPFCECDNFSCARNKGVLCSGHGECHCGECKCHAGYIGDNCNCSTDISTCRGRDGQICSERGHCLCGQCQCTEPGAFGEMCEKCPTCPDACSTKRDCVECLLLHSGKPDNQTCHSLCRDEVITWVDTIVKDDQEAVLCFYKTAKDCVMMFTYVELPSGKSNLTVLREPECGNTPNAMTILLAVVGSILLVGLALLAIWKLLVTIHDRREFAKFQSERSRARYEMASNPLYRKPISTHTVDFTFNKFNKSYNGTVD
# Protocol: (1) 5.0 μg/mL; human vitronectin, Millipore.
# (2) 3.0 μg/mL, human αvβ5-integrin, Millipore.
# [5] = target: human α5β1-integrin (Homo sapiens, UniProt P05556+P08648, DEL729-798); experiment: biochemical
# [6] = in vitro; conditions: human, Caco-2, Papp AB
# Protocol: as §2, §3, §4, §5, §6, §7, §8
# [7] = system: Caco-2 cells; experiment: Caco-2 A-B and B-A permeability with/without verapamil (Example 6); conditions: 10 μM, 90 min, no verapamil
# [8] = as above; conditions: human, Caco-2, pH 7.4
# [9] = PAMPA-GIT permeability; conditions: pH 7.4, 4 hours
# Description: as §1
# [10] = Log D determination (octanol/PBS pH 7.4); conditions: pH 7.4, octanol/PBS
# Protocol: Log D. Determination of distribution coefficients were performed as follows:
# Incubations were carried out in Eppendorf-type polypropylene microtubes in triplicates. […] Phase separation was assured by centrifugation for 2 min at 6000 rpm. The octanol phase was diluted 100-fold with 40% acetonitrile, and aqueous phase was analyzed without dilution. The samples (both phases) were analyzed using HPLC system coupled with tandem mass spectrometer.
# [11] = Caco-2 permeability study (Examples 1-4)
# Protocol: as §2, §3, §4, §5, §6, §7, §8
# [12] = system: amylase and lipase release from the pancreas; conditions: bombesin- and caerulein-induced; cited from earlier work
# [13] = system: somatostatin receptors; conditions: SSTR subtypes; cited from earlier work
compound,measurement,setting,value
"CNC(=C[N+](=O)[O-])NCCSCc1ccc(CN(C)C)o1 [Ranitidine, reference compound]",Mass retention,"[1]; 4 h, 50 μM",21%
same,"Permeability, Mean",[1],<−7* Log10[10^−6 cm/s]
same,"Permeability, replicate 1",[1],<−7 Log10[10^−6 cm/s]
same,"Permeability, replicate 2",[1],<−7 Log10[10^−6 cm/s]
same,"Permeability, replicate 3",[1],<−7 Log10[10^−6 cm/s]
"C[C@@H]1NC(=O)[C@H](C)N(C)C(=O)[C@H](C)NC(=O)[C@H](CC(=O)O)N(C)C(=O)CNC(=O)[C@@H](CCCNC(=N)N)NC1=O [compound 17, c(rG*DA*AA)]",Caco-2 permeability,[2],significant lower permeability
same,IC50,[3],> 10 µM
same,IC50,[4],> 5 µM
same,IC50,[5],> 10 µM
"C[C@@H]1NC(=O)[C@H](CC(=O)O)NC(=O)CNC(=O)[C@@H](CCCNC(=N)N)NC(=O)[C@H](C)N(C)C(=O)[C@H](C)N(C)C1=O [compound 23, c(rGDA*A*A)]",Papp AB,[2],0.61 ± 0.09 cm/s × 10^6
same,Papp BA,[2],1.34 ± 0.03 cm/s × 10^6
same,Caco-2 permeability,[2],significant lower permeability
"C[C@@H]1NC(=O)[C@H](CC(=O)O)NC(=O)CNC(=O)[C@@H](CCCNC(=N)N)N(C)C(=O)[C@H](Cc2ccccc2)NC(=O)[C@H](C)N(C)C1=O [compound 33, c(*rGDA*AF)]",IC50,"[3]; Table 1, read-out: αvβ6, IC50",0.025 ± 0.003 µM
COCCc1ccc(OCC(O)CNC(C)C)cc1 (centres unmarked) [metoprolol],Papp A→B at 150 min,[6],1.89 ± 0.11 ×10⁻⁶ cm/s
"CC(C)[C@@H]1C(=O)N[C@@H](CCCNC(=N)N)C(=O)NCC(=O)N[C@@H](CC(=O)O)C(=O)N[C@@H](C)C(=O)N(C)[C@@H](C)C(=O)N1C [peptide 29, c(*vRGDA*A)]","Papp (AB), Mean",[7],0.7 10^−6 cm/s
same,"Papp (AB), replicate 1",[7],1.0 10^−6 cm/s
same,"Papp (AB), replicate 2",[7],0.2 10^−6 cm/s
same,"Papp (AB), replicate 3",[7],0.9 10^−6 cm/s
same,"Papp (BA), Mean",[7],0.3 10^−6 cm/s
same,"Papp (BA), replicate 1",[7],0.3 10^−6 cm/s
same,"Papp (BA), replicate 2",[7],0.4 10^−6 cm/s
same,"Papp (BA), replicate 3",[7],0.2 10^−6 cm/s
same,"efflux ratio at 90 min, 10 µM",[8],0.4
same,efflux ratio,[2]; Table 3,2.14
same,Papp AB,[2],0.07 ± 0.01 cm/s × 10^6
same,Papp BA,[2],0.15 ± 0.01 cm/s × 10^6
same,Caco-2 permeability,[2],significant lower permeability
same,Mass retention,[9],15%
same,"Permeability, Mean",[9],<−7 Log10[10^−6 cm/s]
same,"Permeability, replicate 1",[9],<−7 Log10[10^−6 cm/s]
same,"Permeability, replicate 2",[9],<−7 Log10[10^−6 cm/s]
same,"Permeability, replicate 3",[9],<−7 Log10[10^−6 cm/s]
same,logD,"[10]; pH 7.4, LogD, pH 7.4 (mean in parentheses below reported bound)",-2.84
same,"LogD, pH 7.4 (mean / reported value)",[10],<−1
"CCCCCCOC(=O)N=C(NCCC[C@@H]1NC(=O)[C@@H](C(C)C)N(C)C(=O)[C@H](C)N(C)C(=O)[C@H](C)NC(=O)[C@H](CC(=O)OC)NC(=O)CNC1=O)NC(=O)OCCCCCC [peptide 29P, c(*vR(Hoc)2GD(OMe)A*A)]",efflux ratio,[11]; Caco-2,13
same,Papp A→B,"[11]; Caco-2, Caco-2 Papp A-to-B, A-to-B, text values (FIGS. 4, 5, 7, 17-20), unit inferred",0.8 ×10⁻⁶ cm/s
same,Papp B→A,"[11]; Caco-2, Caco-2 Papp B-to-A, B-to-A, text values (FIGS. 5, 18, 20), unit inferred",10.6 ×10⁻⁶ cm/s
same,Papp A→B,"[11]; Caco-2, Papp AB, Table 3, n = 3",0.82 ± 0.13 ×10⁻⁶ cm/s
same,Papp B→A,"[11]; Caco-2, Papp BA, Table 3, n = 3",10.7 ± 2.14 ×10⁻⁶ cm/s
PTR-3046: backbone cyclic somatostatin analog (SEQ ID NO: 28) ([N(2-aminoethyl)Phe]Y[dW]KV[Phe(Nα-(CH2)3CO)]T-NH2; bridge 1-6; also: backbone cyclisation between building units),inhibition of amylase and lipase release,[12],inhibits bombesin- and caerulein-induced amylase and lipase release from the pancreas
same,somatostatin receptor selectivity,[13],selective toward the SSTR5

# Reference: patent US20200323962A1, “LIPOPHILIC PEPTIDE PRODRUGS” (YISSUM RESEARCH DEVELOPMENT COMPANY OF THE HEBREW …, priority 2017, published 2020)
